Measured values as given in ChEMBL document CHEMBL4665678, “Overview of AKR1C3: Inhibitor Achievements and Disease Insights” (J Med Chem, 2020).
Residue numbers refer to the chain shown, from its start. pIC50, pKi: −log10 of the molar value. Each block holds one compound with its values, some of them ahead of it.

How the values were obtained:
Androgen receptor [1] = biological target: T1, Androgen receptor (Homo sapiens, UniProt P10275); assay: Antagonist activity at androgen receptor (unknown origin) expressed in human HeLa cells harboring AR3A-PSA-(ARE)4-Luc13 in presence of DHT by BrightGlo luciferase assay; format: cell-based
T1 sequence (P10275 whole entry): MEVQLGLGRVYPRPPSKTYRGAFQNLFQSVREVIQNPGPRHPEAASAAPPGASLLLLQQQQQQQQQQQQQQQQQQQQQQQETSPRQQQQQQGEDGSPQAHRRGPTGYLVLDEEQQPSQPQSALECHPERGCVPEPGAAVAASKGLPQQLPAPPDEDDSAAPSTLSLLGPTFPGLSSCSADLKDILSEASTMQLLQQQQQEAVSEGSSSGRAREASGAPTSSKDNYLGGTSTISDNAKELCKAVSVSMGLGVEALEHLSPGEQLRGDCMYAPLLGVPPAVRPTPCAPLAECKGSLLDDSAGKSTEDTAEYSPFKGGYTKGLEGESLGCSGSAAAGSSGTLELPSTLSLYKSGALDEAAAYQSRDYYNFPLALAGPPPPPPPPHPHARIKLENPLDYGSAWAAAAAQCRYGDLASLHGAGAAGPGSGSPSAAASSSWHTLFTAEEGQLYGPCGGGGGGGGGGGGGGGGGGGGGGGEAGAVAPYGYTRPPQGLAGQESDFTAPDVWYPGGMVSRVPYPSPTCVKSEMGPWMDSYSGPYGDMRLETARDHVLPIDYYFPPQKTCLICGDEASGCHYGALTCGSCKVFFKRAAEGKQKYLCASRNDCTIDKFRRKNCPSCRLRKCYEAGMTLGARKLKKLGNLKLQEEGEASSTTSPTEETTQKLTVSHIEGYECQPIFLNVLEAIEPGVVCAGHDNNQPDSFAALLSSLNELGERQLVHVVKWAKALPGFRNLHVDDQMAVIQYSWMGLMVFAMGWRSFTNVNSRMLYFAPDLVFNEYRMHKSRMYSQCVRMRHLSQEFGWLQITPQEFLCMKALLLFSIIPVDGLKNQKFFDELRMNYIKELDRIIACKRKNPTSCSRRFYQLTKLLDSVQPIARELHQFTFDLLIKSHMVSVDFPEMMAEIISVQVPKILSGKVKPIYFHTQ

Androgen receptor [2] = biological target: T1, Androgen receptor; assay: Displacement of [3H]-R1881 from androgen receptor (unknown origin) expressed in human HeLa cells harboring AR3A-PSA-(ARE)4-Luc13 incubated for 2 hrs by scintillation counting; format: cell-based
[3] = biological target: T2, Aldo-keto reductase family 1 member C4 (Homo sapiens, UniProt P17516); assay: Inhibition of human AKR1C4 using S-tetralol as substrate in presence of NADP by fluorescence method
T2 sequence (P17516 whole entry): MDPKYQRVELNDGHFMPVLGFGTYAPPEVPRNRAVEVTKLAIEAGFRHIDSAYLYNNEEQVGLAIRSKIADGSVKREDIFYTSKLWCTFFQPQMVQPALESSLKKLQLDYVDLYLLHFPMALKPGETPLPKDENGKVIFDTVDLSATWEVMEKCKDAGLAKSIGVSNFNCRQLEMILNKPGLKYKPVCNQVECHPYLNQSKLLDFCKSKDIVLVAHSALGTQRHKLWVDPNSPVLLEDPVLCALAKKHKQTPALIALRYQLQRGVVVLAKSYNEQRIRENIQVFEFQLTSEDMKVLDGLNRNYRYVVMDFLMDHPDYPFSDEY

[4] = biological target: T3, Aldo-keto reductase family 1 member C2 (Homo sapiens, UniProt P52895); assay: Inhibition of human AKR1C2 using S-tetralol as substrate in presence of NADP by fluorescence method
T3 sequence (P52895 whole entry): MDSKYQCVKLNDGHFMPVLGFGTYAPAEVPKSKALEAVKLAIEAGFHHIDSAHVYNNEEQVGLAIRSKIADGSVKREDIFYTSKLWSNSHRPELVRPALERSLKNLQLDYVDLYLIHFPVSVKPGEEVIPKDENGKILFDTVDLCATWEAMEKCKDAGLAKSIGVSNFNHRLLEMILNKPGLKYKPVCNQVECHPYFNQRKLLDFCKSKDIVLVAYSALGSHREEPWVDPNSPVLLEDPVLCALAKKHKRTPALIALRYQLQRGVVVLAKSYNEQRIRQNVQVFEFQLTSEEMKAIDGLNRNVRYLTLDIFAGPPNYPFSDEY

[5] = biological target: T4, Aldo-keto reductase family 1 member C1 (Homo sapiens, UniProt Q04828); assay: Inhibition of human AKR1C1 using S-tetralol as substrate in presence of NADP by fluorescence method
T4 sequence (Q04828 whole entry): T3 sequence (P52895 whole entry) with V38T, H47R, V54L, S87C, M151V, H170R, L172Q

[6] = biological target: T5, Aldo-keto reductase family 1 member C3 (Homo sapiens, UniProt P42330); assay: Inhibition of human AKR1C3 using S-tetralol as substrate in presence of NADP by fluorescence method
T5 sequence (P42330 whole entry): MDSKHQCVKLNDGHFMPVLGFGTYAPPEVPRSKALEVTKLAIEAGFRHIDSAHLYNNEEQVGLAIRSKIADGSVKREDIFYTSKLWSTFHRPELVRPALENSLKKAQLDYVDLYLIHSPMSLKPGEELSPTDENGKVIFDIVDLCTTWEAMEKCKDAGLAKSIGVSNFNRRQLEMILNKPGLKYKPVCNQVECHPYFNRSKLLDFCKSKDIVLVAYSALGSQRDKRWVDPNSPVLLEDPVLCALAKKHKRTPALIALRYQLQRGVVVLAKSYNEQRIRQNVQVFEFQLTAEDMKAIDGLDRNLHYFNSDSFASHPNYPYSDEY

[7] = biological target: T5, Aldo-keto reductase family 1 member C3; assay: Inhibition of human AKR1C3 expressed in Escherichia coli BL21(DE3) pLysS cells using 9,10-phenanthrenequinone as substrate
[8] = biological target: T5, Aldo-keto reductase family 1 member C3; assay: Inhibition of human AKR1C3 expressed in Escherichia coli BL21(DE3) pLysS cells using S-tetralol as substrate
[9] = biological target: T4, Aldo-keto reductase family 1 member C1; assay: Inhibition of AKR1C1 (unknown origin) using 9,10-phenanthrenequinone as substrate
[10] = biological target: T3, Aldo-keto reductase family 1 member C2; assay: Inhibition of AKR1C2 (unknown origin) using 9,10-phenanthrenequinone as substrate
[11] = biological target: T6, Aldo-keto reductase family 1 member A1 (Homo sapiens, UniProt P14550); assay: Inhibition of N-terminal His-tagged human AKR1A1 expressed in Escherichia coli BL21 ([…] Plus) competent cells using D,L-glyceraldehyde as substrate in presence of NADPH by fluorescence method
T6 sequence (P14550 whole entry): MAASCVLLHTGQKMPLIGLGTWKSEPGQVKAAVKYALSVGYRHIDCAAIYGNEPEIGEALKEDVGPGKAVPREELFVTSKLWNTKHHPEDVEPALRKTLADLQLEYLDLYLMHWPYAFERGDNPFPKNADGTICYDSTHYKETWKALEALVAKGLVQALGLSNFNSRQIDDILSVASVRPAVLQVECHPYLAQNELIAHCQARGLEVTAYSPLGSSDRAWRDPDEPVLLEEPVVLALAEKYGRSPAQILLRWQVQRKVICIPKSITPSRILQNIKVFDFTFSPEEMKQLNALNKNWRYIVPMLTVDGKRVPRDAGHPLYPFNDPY

[12] = biological target: Aldo-keto reductase family 1 member B10 (Homo sapiens, UniProt O60218); assay: Inhibition of N-terminal His-tagged human AKR1B10 expressed in Escherichia coli BL21 ([…] Plus) competent cells using […] as substrate in presence of NADPH by fluorescence method
[13] = biological target: T2, Aldo-keto reductase family 1 member C4; assay: Inhibition of N-terminal His-tagged human AKR1C4 expressed in Escherichia coli BL21 ([…] Plus) competent cells using 9,10 -Phenanthrenequinone as substrate in presence of NADPH by fluorescence method
[14] = biological target: T3, Aldo-keto reductase family 1 member C2; assay: Inhibition of N-terminal His-tagged human AKR1C2 expressed in Escherichia coli BL21 ([…] Plus) competent cells using 9,10 -Phenanthrenequinone as substrate in presence of NADPH by fluorescence method
[15] = biological target: T5, Aldo-keto reductase family 1 member C3; assay: Inhibition of N-terminal His-tagged human AKR1C3 expressed in Escherichia coli BL21 ([…] Plus) competent cells using 9,10 -Phenanthrenequinone as substrate in presence of NADPH by fluorescence method
[16] = biological target: Aldo-keto reductase family 1 member B1 (Homo sapiens, UniProt P15121); assay: Inhibition of N-terminal His-tagged human AKR1B1 expressed in Escherichia coli BL21 ([…] Plus) competent cells using D,L-glyceraldehyde as substrate in presence of NADPH by fluorescence method
[17] = biological target: T4, Aldo-keto reductase family 1 member C1; assay: Inhibition of N-terminal His-tagged human AKR1C1 expressed in Escherichia coli BL21 ([…] Plus) competent cells using 9,10 -Phenanthrenequinone as substrate in presence of NADPH by fluorescence method
[18] = biological target: T5, Aldo-keto reductase family 1 member C3; assay: Inhibition of human AKR1C3 expressed in Escherichia coli incubated for 30 mins in presence of NADPH regeneration system by UHPLC analysis; settings: for pKi: read-out: Ki
[19] = biological target: T5, Aldo-keto reductase family 1 member C3; assay: Inhibition of N-terminal His-tagged human AKR1C3 expressed in Escherichia coli BL21([…] Plus) competent cells using 9,10-phenanthrenequinone as substrate in presence of NADPH
[20] = biological target: T4, Aldo-keto reductase family 1 member C1; assay: Inhibition of N-terminal His-tagged human AKR1C1 expressed in Escherichia coli BL21 ([…] Plus) competent cells using 9,10-phenanthrenequinone as substrate in presence of NADPH
[21] = biological target: T3, Aldo-keto reductase family 1 member C2; assay: Inhibition of N-terminal His-tagged human AKR1C2 expressed in Escherichia coli BL21 ([…] Plus) competent cells using 9,10-phenanthrenequinone as substrate in presence of NADPH

Sequence of Aldo-keto reductase family 1 member B10 (O60218 whole entry): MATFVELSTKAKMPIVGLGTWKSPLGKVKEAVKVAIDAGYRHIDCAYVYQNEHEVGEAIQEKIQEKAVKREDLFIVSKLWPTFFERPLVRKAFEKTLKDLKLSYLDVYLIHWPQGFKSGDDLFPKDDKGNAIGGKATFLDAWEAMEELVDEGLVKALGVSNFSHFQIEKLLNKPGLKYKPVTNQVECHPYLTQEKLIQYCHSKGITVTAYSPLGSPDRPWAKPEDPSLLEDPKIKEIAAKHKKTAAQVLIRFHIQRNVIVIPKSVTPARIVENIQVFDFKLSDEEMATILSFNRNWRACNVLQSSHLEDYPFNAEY

Structure (SMILES): CC(=O)c1ccc(Nc2cccc(C(=O)O)c2)c2ccccc12
pIC50 [3]: 4.75
pIC50 [4]: 4.71
pIC50 [5]: 4.30
pIC50 [6]: 7.09

Structure (SMILES): CCCCCCCCOC(=O)c1cc(O)c(O)c(O)c1 [OCTYL_GALLATE]
pIC50 [11]: < 4.00
pIC50 [12]: < 4.00
pIC50 [13]: 5.39
pIC50 [14]: 5.03
pIC50 [15]: 5.59
pIC50 [16]: < 4.00
pIC50 [17]: 5.26

Structure (SMILES): CC(C)C(CO)Nc1nc(Nc2cccc(Cl)c2)c2ncn(C(C)C)c2n1 (stereo not given)
pIC50 [18]: 5.18
pKi [18]: 5.26

Structure (SMILES): CCCCC/C=C/C/C=C/C/C=C/C/C=C/CCCC(=O)O
pIC50 [7]: 6.08
pIC50 [8]: 6.16

Structure (SMILES): O=C(O)c1cccc(Nc2ccc([N+](=O)[O-])c3ccccc23)c1
pIC50 [3]: 4.51
pIC50 [4]: 4.61
pIC50 [5]: 4.38
pIC50 [6]: 7.07

Structure (SMILES): O=C(O)c1cccc(Nc2ccc([N+](=O)[O-])c3c([N+](=O)[O-])cccc23)c1
pIC50 [3]: 5.27
pIC50 [4]: 4.81
pIC50 [5]: 4.81
pIC50 [6]: 7.28

Structure (SMILES): CCC(CO)Nc1nc(NCc2ccccc2)c2ncn(C(C)C)c2n1 (stereo not drawn) [(RS)-ROSCOVITINE]
pIC50 [18]: 5.67
pKi [18]: 5.85

Second part, the compound after the results:

pIC50 (Androgen receptor [1]): 5.68
pIC50 (Androgen receptor [2]): 4.10
Structure (SMILES): Oc1ccc2c(O)ncc(-c3cc(F)c(F)c(F)c3)c2c1

pIC50 [7]: 6.16
pIC50 [8]: 6.16
Structure (SMILES): CCCCC/C=C\C/C=C\CCCCCCCC(=O)O [LINOLEIC ACID]

pIC50 [9]: 4.02
pIC50 [10]: 4.30
Structure (SMILES): COc1ccc2c(c1)c(CC(=O)O)c(C)n2C(=O)c1ccc(Cl)cc1 [INDOMETHACIN]

pIC50 [11]: < 4.30
pIC50 [12]: 6.41
pIC50 [13]: 5.08
pIC50 [14]: 4.59
pIC50 [15]: 5.43
pIC50 [16]: 5.45
pIC50 [17]: 4.53
Structure (SMILES): O=C(/C=C/c1ccc(O)c(O)c1)OCCc1ccccc1 [CAFFEIC ACID PHENETHYL ESTER]

pIC50 [19]: 6.07
pIC50 [20]: 5.16
pIC50 [21]: < 4.30
Structure (SMILES): CCC1=C(C)CN(C(=O)NCCc2ccc(S(=O)(=O)NC(=O)N[C@H]3CC[C@H](C)CC3)cc2)C1=O [GLIMEPIRIDE]

pIC50 [19]: 4.71
pIC50 [20]: < 3.52
pIC50 [21]: < 3.00
Structure (SMILES): Cc1ccc(S(=O)(=O)NC(=O)NN2CC3CCCC3C2)cc1 (stereo not given) [GLICLAZIDE]

pIC50 (Androgen receptor [1]): 3.52
Structure (SMILES): COc1ccc2[nH]c(C(=O)N3CCC(CC(C)(C)O)CC3)cc2c1 [ASP-9521]
